Measurements reported in publication PMC10600239, “Selective MCL-1 inhibitor ABBV-467 is efficacious in tumor models but is associated with cardiac troponin increases in patients” (Communications Medicine, 2023).

Key:
SU-DHL-1 cells = assay: Cell viability of BAK-deficient and parental SU-DHL-1 cells (CellTiter-Glo); type: cell-based; settings: SU-DHL-1, 24 hr
Experimental: Supplementary Fig . S4: BAK is required for ABBV-467 ac tiv ity in S U-DHL-1 cells. BAK-deficient SU- D HL -1
cells were treated with ABBV-4 67 fo r 24 hr at the indicated concentrations and the impact on cell
viability compared to the parental cell line determined by CellTiter- G lo . N=3 .
(1 picture or pasted object on this page, not shown here)

[1] = Phase 1 first-in-human study (NCT04178902): safety; type: in vivo
Description: This FIH study (NCT04178902) for ABBV-467 was a multicenter, open-label, dose-escalation study enrolling patients aged ≥18 years who had R/R MM, with the option to enroll R/R AML once recommended phase 2 dose (RP2D) was established. The study design was originally planned to consist of 2 parts: dose escalation and dose expansion, including a minimum of 6 patients treated during dose escalation at what was ultimately to be declared the RP2D. Patients must have received 3 or more prior lines of therapy including at least 1 or more immunomodulatory agents, 1 or more proteasome inhibitors, and 1 or more anti-CD38 monoclonal antibodies. Other eligibility criteria included: Eastern Cooperative Oncology Group performance status ≤2, measurable disease as defined by International Myeloma Working Group (IMWG) consensus criteria, an echocardiogram with an ejection fraction ≥50%, and adequate hematologic, hepatic, and renal function. The prespecified primary objectives were to characterize the safety and toxicity profiles, to establish the RP2D, and to determine the pharmacokinetic (PK) profile of ABBV-467 monotherapy. Safety evaluations included, but were not limited to, adverse event (AE) monitoring, physical examinations, vital sign measurements, electrocardiogram (ECG), cardiac enzyme monitoring, and clinical laboratory testing (hematology and chemistry) as a measure of safety and tolerability for the entire study duration. Parameters used to determine PK included maximum observed plasma concentration (Cmax), terminal elimination half-life (t1/2), area under the plasma concentration-time curve (AUC) from time 0 to time of last measurable concentration (AUCt), AUC from time 0 to infinity (AUC0-∞), and clearance using non-compartmental methods. Secondary objectives were preliminary evaluation of the efficacy of ABBV-467 in R/R MM and R/R AML. Preliminary efficacy endpoints were overall response rate (ORR), clinical benefit rate (CBR), and duration of response (DOR) as evaluated per adapted IMWG[36] criteria for MM and per adapted International Working Group (IWG)[37] and European Leukemia Net (ELN)[38] criteria for AML.
ABBV-467 was administered as an IV infusion once weekly, for each 28-day cycle over at least a 30-minute period beginning on day 1 of cycle 1. The first infusion was given at half the target dose level. Dosing increased from patient cohort to patient cohort; the escalation was guided by a Bayesian optimal interval design[39] on the basis of the cumulative number of patients who experienced a dose-limiting toxicity (DLT) at a given ABBV-467 dose level. The DLT observation period was defined as the first treatment cycle (cycle 1). AEs of any grade resulting in discontinuation of study drug or missing any dose as a result of toxicity unexplained by underlying disease will be considered a DLT. Any AE of grade 3 or higher will be considered a DLT, unless toxicity can solely be attributed to the underlying disease, with the following clarifications. A non-hematologic DLT was defined as: grade 3 mucositis, nausea, vomiting, or diarrhea that required total parenteral nutrition, tube feeding, or hospitalization lasting >72 h; any grade 4 non-hematologic laboratory abnormality; and any instance of an AE that met the definition of Hy’s Law.
Blood samples for plasma ABBV-467 concentration analysis were collected on days 1, 2, 3, and 15–17 of cycle 1 as well as on days 1 of cycles for PK analysis. Plasma samples of ABBV-467 were quantified using a validated LC-tandem MS with a lower limit of detection of 3 ng/mL. ABBV-467 PK parameters were calculated using standard non-compartmental approaches with Phoenix, WinNonlin (Version 8.0, Certara). AE severity was graded according to the National Cancer Institute Common Terminology Criteria for Adverse Events v5.0 for up to 30 days after the last dose. Analyses of AEs will include only treatment-emergent AEs. Triplicate ECGs were performed on days 1, 2, 15, and 16 of cycle 1. […]

Cc1c(Cl)c2c(Cl)c(C)c1-c1c(-c3ccc(F)cc3)sc3ncnc(c13)O[C@@H](C(=O)O)Cc1cc(ccc1OCc1ccnc(-c3ccc(OC[C@H]4COCCO4)cc3)n1)OC[C@@H](CN1CCN(C)CC1)O2 [ABBV-467]
7 (88) n (%): Any AE, n (%) ([1]; Total (N = 8))
3 patients: patients with grade 3 TEAEs ([1]; N = 8)
0 n (%): TEAE: Arthralgia ([1]; 0.32 mg/kg (n = 2)) | TEAE: Arthritis ([1]; 0.32 mg/kg (n = 2)) | TEAE: Febrile neutropenia ([1]; 0.32 mg/kg (n = 2)) | TEAE: Gastritis ([1]; 0.32 mg/kg (n = 2)) | TEAE: Increased alanine aminotransferase ([1]; 0.32 mg/kg (n = 2)) | TEAE: Increased amylase ([1]; 0.32 mg/kg (n = 2)) | TEAE: Increased aspartate aminotransferase ([1]; 0.32 mg/kg (n = 2)) | TEAE: Increased troponin T ([1]; 0.32 mg/kg (n = 2)) | TEAE: Nausea ([1]; 0.32 mg/kg (n = 2)) | TEAE: Neutropenia ([1]; 0.32 mg/kg (n = 2)) | TEAE: Pain in extremity ([1]; 0.32 mg/kg (n = 2)) | TEAE: Pelvic pain ([1]; 0.32 mg/kg (n = 2)) | TEAE: Vitreous floaters ([1]; 0.32 mg/kg (n = 2)) | TEAE: Anemia ([1]; 0.53 mg/kg (n = 3)) | TEAE: Arthralgia ([1]; 0.53 mg/kg (n = 3)) | TEAE: Arthritis ([1]; 0.53 mg/kg (n = 3)) | TEAE: Diarrhea ([1]; 0.53 mg/kg (n = 3)) | TEAE: Febrile neutropenia ([1]; 0.53 mg/kg (n = 3)) | TEAE: Gastritis ([1]; 0.53 mg/kg (n = 3)) | TEAE: Malaise ([1]; 0.53 mg/kg (n = 3)) | TEAE: Nausea ([1]; 0.53 mg/kg (n = 3)) | TEAE: Neutropenia ([1]; 0.53 mg/kg (n = 3)) | TEAE: Pain in extremity ([1]; 0.53 mg/kg (n = 3)) | TEAE: Pelvic pain ([1]; 0.53 mg/kg (n = 3)) | TEAE: Vitreous floaters ([1]; 0.53 mg/kg (n = 3))
1 (13) n (%): TEAE: Anemia ([1]; Total (N = 8)) | TEAE: Arthralgia ([1]; Total (N = 8)) | TEAE: Arthritis ([1]; Total (N = 8)) | TEAE: Febrile neutropenia ([1]; Total (N = 8)) | TEAE: Gastritis ([1]; Total (N = 8)) | TEAE: Increased alanine aminotransferase ([1]; Total (N = 8)) | TEAE: Increased amylase ([1]; Total (N = 8)) | TEAE: Malaise ([1]; Total (N = 8)) | TEAE: Neutropenia ([1]; Total (N = 8)) | TEAE: Pain in extremity ([1]; Total (N = 8)) | TEAE: Pelvic pain ([1]; Total (N = 8)) | TEAE: Vitreous floaters ([1]; Total (N = 8))
63%: patients with treatment-related AEs ([1]; N = 8)
no grade 5 toxicities: grade 5 toxicities ([1]; any dose cohort)
1 (33) n (%): TEAE: Increased alanine aminotransferase ([1]; 0.53 mg/kg (n = 3)) | TEAE: Increased amylase ([1]; 0.53 mg/kg (n = 3)) | TEAE: Increased troponin I ([1]; 0.53 mg/kg (n = 3)) | TEAE: Increased troponin T ([1]; 0.53 mg/kg (n = 3))
2 (25) n (%): TEAE: Diarrhea ([1]; Total (N = 8)) | TEAE: Increased aspartate aminotransferase ([1]; Total (N = 8)) | TEAE: Increased troponin I ([1]; Total (N = 8)) | TEAE: Increased troponin T ([1]; Total (N = 8)) | TEAE: Nausea ([1]; Total (N = 8))
2 (100) n (%): Any AE, n (%) ([1]; 0.32 mg/kg (n = 2))
3 (100) n (%): Any AE, n (%) ([1]; 0.53 mg/kg (n = 3))
1 (50) n (%): TEAE: Anemia ([1]; 0.32 mg/kg (n = 2)) | TEAE: Diarrhea ([1]; 0.32 mg/kg (n = 2)) | TEAE: Increased troponin I ([1]; 0.32 mg/kg (n = 2)) | TEAE: Malaise ([1]; 0.32 mg/kg (n = 2))
completely inhibited: effect of BAK deletion on activity (SU-DHL-1 cells)
classified as a DLT: dose-limiting toxicity ([1]; 1 patient, grade 3 treatment-related troponin I elevation leading to discontinuation)
2 (67) n (%): TEAE: Increased aspartate aminotransferase ([1]; 0.53 mg/kg (n = 3))
No cardiac disorders of any grade: cardiac disorders ([1]; any dose cohort)
